Entries after “also recorded” stand apart in the source; their conditions may differ.
Key:
[1] = tested on: platelets; assay: Inhibitor pre-treatment before agonist-induced platelet activation (flow cytometry); format: cell-based; conditions: for inhibition of CCL5-induced platelet activation / inhibition of Tat-induced platelet activation: pre-treatment 37° C. 30 minutes, SB328437 3 nM, EGTA 100 μM, PGE1 5 μM; for inhibition of CCL5-induced platelet activation: CCL5 10 μg/ml; for inhibition of Tat-induced platelet activation: Tat 20 ng/ml
Protocol: (§1) Gel-filtered human or mouse platelets were prepared from platelet-rich plasma obtained from blood collected in 0.38% sodium citrate via heart puncture. 1×10^7gel-filtered platelets were incubated under different stimulation conditions at 37° C. for 30 minutes. For in vitro platelet activation, Tat 20 ng/ml, CCL5 10 μg/ml, or control Ad18-66 20 ng/ml were used. To test the role of chemokine receptor CCR3, calcium flux and cAMP in Tat-induced platelet activation, CCR3 inhibitor SB328437 3 nM, calcium flux inhibitor EGTA 100 μM and prostaglandin E1 (PGE1, a cAMP elevator) 5 μM were used separately to treat platelets at 37° C. for 30 minutes before incubation with Tat, CCL5 or control as above. To test the role of β3 integrin, platelets from β3 integrin knock out mice were incubated with Tat, CCL5, thrombin, and control. Treated platelets were then stained with anti-CD154-FITC and anti-CD62P-PE antibody on ice for one hour. Fluorescent-labeled platelets were measured by flow cytometry (FACScan, Becton-Dickinson, Calif.).

[2] = molecular target: integrin αVβ3 (Homo sapiens, UniProt P05106+P06756); conditions: read-out: dissociation constants (Kd), integrin αVβ3; cited from earlier work
Sequence of integrin αVβ3 (P06756 31-889 limits assumed): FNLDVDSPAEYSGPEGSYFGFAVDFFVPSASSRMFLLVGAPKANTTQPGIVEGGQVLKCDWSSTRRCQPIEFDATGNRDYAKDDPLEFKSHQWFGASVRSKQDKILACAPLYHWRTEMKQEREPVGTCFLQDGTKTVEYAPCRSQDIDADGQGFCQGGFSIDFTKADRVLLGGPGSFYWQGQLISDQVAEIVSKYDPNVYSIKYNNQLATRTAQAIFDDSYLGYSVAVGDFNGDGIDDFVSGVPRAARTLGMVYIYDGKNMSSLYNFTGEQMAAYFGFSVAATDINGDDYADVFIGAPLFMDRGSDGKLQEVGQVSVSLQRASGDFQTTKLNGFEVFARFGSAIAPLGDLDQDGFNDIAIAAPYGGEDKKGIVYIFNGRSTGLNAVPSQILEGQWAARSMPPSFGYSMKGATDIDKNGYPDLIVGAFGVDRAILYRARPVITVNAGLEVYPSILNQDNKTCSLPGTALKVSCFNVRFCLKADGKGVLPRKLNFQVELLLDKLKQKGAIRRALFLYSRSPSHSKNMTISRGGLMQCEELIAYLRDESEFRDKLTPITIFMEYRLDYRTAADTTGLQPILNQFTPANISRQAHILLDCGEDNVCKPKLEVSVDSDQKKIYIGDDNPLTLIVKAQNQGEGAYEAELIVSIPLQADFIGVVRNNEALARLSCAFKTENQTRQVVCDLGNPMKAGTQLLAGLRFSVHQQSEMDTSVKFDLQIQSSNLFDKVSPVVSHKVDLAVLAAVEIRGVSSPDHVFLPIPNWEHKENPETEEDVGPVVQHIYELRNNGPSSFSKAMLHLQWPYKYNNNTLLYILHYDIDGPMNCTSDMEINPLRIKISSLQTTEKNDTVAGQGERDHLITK
Sequence of integrin αVβ3 (P06756 891-1048 partner limits assumed): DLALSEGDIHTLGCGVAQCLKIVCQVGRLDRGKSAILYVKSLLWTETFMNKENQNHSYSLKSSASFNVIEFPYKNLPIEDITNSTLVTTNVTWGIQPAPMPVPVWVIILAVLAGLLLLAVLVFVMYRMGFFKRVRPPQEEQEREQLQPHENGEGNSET
Sequence of integrin αVβ3 (P05106 27-788): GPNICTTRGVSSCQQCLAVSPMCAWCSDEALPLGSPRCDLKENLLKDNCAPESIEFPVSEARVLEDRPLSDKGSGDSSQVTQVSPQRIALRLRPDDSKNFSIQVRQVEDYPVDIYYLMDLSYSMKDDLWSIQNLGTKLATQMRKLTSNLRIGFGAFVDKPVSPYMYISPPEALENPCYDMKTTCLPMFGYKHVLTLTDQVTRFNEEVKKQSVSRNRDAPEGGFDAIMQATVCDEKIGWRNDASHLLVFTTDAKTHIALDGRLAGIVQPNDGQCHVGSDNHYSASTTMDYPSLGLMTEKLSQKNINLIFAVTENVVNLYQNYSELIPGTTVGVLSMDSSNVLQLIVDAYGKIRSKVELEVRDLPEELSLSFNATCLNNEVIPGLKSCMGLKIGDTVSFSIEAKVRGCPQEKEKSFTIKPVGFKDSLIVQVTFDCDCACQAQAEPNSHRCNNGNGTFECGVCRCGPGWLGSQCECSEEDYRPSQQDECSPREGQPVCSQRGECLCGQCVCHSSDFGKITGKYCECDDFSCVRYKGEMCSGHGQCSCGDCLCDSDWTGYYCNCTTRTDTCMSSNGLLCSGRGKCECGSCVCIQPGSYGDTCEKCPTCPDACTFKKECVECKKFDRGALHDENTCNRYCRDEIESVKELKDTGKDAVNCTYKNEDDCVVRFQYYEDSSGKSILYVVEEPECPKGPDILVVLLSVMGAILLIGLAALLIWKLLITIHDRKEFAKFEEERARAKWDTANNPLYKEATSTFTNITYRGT

[3] = tested on: platelets from integrin β3 knockout mice; assay: Flow cytometry assay of platelet activation, platelets from integrin β3 knockout mice; format: cell-based, mouse; conditions: β3−/− gel-filtered platelets
Protocol: as §1

Row | Compound | inhibition of CCL5-induced platelet activation [1] | inhibition of Tat-induced platelet activation [1] | Kd [2] | also measured
1 | O=C(O)CN(CCOCCOCCN(CC(=O)O)CC(=O)O)CC(=O)O [EGTA] | completely inhibited; also recorded: completely blocks | completely inhibited |  | 
2 | CCCCC[C@H](O)/C=C/[C@H]1[C@H](O)CC(=O)[C@@H]1CCCCCCC(=O)O [PGE1, prostaglandin E1] | partially inhibited | No significant inhibition |  | inhibition of CCL5-induced platelet activation ([1]; listed as prostaglandin E1 (PGE1)): partially blocks
3 | COC(=O)[C@H](Cc1ccc([N+](=O)[O-])cc1)NC(=O)c1cccc2ccccc12 [SB328437] | completely inhibited | completely inhibited |  | inhibition of thrombin-induced platelet activation ([1]; SB328437 pre-treatment, FIG. 9 in β3−/− platelets): did not inhibit; also recorded: do not inhibit
4 | fibrinogen |  |  | 27 nM | 
5 | thrombin |  |  |  | platelet activation in integrin β3 deficient mouse platelets [3]: still induces platelet activation
6 | vitronectin: integrin αVβ3 ligand, literature comparator |  |  | 64 nM | 

— patent publication US20110287045A1, “Enhanced immune response against infections” (priority 2010, published 2011)
